Data: the supplement of paper PMC10307832

How the values were obtained:
Assay in all cases: relative viability (nuclei count vs DMSO), 5 days (fraction); higher = more cells survive
[1] = compound: COc1cc2ncn(-c3cc(OCc4ccccc4C(F)(F)F)c(C(N)=O)s3)c2cc1OC + COc1cccc2cc(-c3nc([C@H]4CC[C@H](C(=O)O)CC4)n4ncnc(N)c34)[nH]c12 [OSI-027] (partner 0.5 µM)
Outline: (§1)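 Relative viability divides the nuclei count in treated wells by that in vehicle wells. Lung cancer cell lines were seeded in 1536-well plates, dosed by pin tool the next day, and fixed and stained after 5 days in one step with final 0.05% Triton X-100, 1% formaldehyde and 1 ug/ml Hoechst. Dosing was a single drug or a fixed anchor-drug dose plus five library-drug doses (not always all listed) in √10 steps, and values are medians of duplicate plates imaged at 4×.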

[2] = compound: COc1cc2ncn(-c3cc(OCc4ccccc4C(F)(F)F)c(C(N)=O)s3)c2cc1OC + CC(=O)Nc1cccc(-n2c(=O)n(C3CC3)c(=O)c3c(Nc4ccc(I)cc4F)n(C)c(=O)c(C)c32)c1 [Trametinib] (partner 0.02 µM)
Outline: as §1

[3] = compound: COc1cc2ncn(-c3cc(OCc4ccccc4C(F)(F)F)c(C(N)=O)s3)c2cc1OC + C[C@]1(O)C[C@@H](c2nc(-c3ccc4ccc(-c5ccccc5)nc4c3)c3c(N)nccn32)C1 [Linsitinib] (partner 1 µM)
Outline: as §1

[4] = compound: COc1cc2ncn(-c3cc(OCc4ccccc4C(F)(F)F)c(C(N)=O)s3)c2cc1OC + CS(=O)(=O)CCNCc1ccc(-c2ccc3ncnc(Nc4ccc(OCc5cccc(F)c5)c(Cl)c4)c3c2)o1 [Lapatinib] (partner 2 µM)
Outline: as §1

| Cell Line | relative viability ([1]; first compound 0.05 µM) | relative viability ([1]; first compound 0.1581 µM) | relative viability ([1]; first compound 0.5 µM) | relative viability ([1]; first compound 5 µM) | relative viability ([2]; first compound 0.05 µM) | relative viability ([2]; first compound 0.1581 µM) | relative viability ([2]; first compound 0.5 µM) | relative viability ([2]; first compound 1.581 µM) | relative viability ([2]; first compound 5 µM) | relative viability ([3]; first compound 0.05 µM) | relative viability ([3]; first compound 0.1581 µM) | relative viability ([3]; first compound 0.5 µM) | relative viability ([3]; first compound 1.581 µM) | relative viability ([3]; first compound 5 µM) | relative viability ([4]; first compound 0.05 µM) | relative viability ([4]; first compound 0.1581 µM) | relative viability ([4]; first compound 0.5 µM) | relative viability ([4]; first compound 1.581 µM) | relative viability ([4]; first compound 5 µM) | relative viability ([1]; first compound 1.581 µM) |
| --- | --- | --- | --- | --- | --- | --- | --- | --- | --- | --- | --- | --- | --- | --- | --- | --- | --- | --- | --- | --- |
| 201T | 0.755 | 0.699 | 0.672 | 0.369 | 0.707 | 0.728 | 0.691 | 0.647 | 0.301 | 1.05 | 0.983 | 0.971 | 0.46 | 0.262 | 1.04 | 1.03 | 1.01 | 0.708 | 0.299 | – |
| A549 | – | – | – | – | – | – | – | – | – | 0.63 | 0.714 | 0.386 | 0.0698 | 0.29 | 0.984 | 0.862 | 0.0918 | 0.0675 | 0.065 | – |
| A-427 | 0.54 | 0.339 | 0.432 | 0.114 | 0.833 | 0.52 | 0.59 | 0.336 | 0.187 | 1.14 | 1.15 | 1.03 | 0.566 | 0.179 | 1.02 | 1.12 | 1 | 0.418 | 0.116 | 0.158 |
| ABC-1 | 0.629 | 0.437 | 0.248 | 0.191 | – | – | – | – | – | 0.862 | 0.874 | 0.582 | 0.302 | 0.218 | 1.18 | 0.723 | 1.11 | 1.14 | 1.2 | 0.207 |
| BEN | 0.272 | 0.307 | 0.278 | 0.233 | 1.16 | 1.03 | 0.954 | 0.546 | 0.52 | 0.931 | 0.875 | 0.648 | 0.235 | 0.297 | 0.696 | 0.526 | 0.56 | 0.256 | 0.212 | 0.205 |
| CAL-12T | 0.535 | 0.411 | 0.149 | 0.141 | 0.387 | 0.278 | 0.272 | 0.178 | 0.161 | 0.775 | 0.746 | 0.423 | 0.246 | 0.228 | 0.647 | 0.708 | 0.379 | 0.228 | 0.156 | 0.129 |
| COR-L23 | 0.697 | 0.644 | 0.679 | 0.0946 | 0.591 | 0.286 | 0.27 | 0.105 | 0.0781 | 0.887 | 0.761 | 0.332 | 0.0808 | 0.1 | 0.891 | 1.01 | 0.798 | 0.143 | 0.107 | 0.117 |
| COR-L 105 | 0.591 | 0.823 | 0.526 | 0.211 | 0.446 | 0.436 | 0.438 | 0.353 | 0.326 | 1.13 | 0.935 | 0.713 | 0.42 | 0.306 | 0.373 | 0.365 | 0.277 | 0.255 | 0.292 | 0.298 |
| Calu-6 | – | – | – | – | – | – | – | – | – | 0.976 | 0.843 | 0.257 | 0.0961 | 0.0852 | 1.02 | 0.872 | 0.315 | 0.129 | 0.128 | – |
| ChaGo-K-1 | 0.622 | 0.531 | 0.32 | 0.134 | 1.01 | 0.907 | 0.661 | 0.267 | 0.194 | – | – | – | – | – | – | – | – | – | – | 0.182 |
| EBC-1 | – | – | – | – | – | – | – | – | – | 0.798 | 0.889 | 0.446 | 0.169 | 0.134 | 0.195 | 0.216 | 0.199 | 0.172 | 0.176 | – |
| EKVX | 0.653 | 0.69 | 0.491 | 0.449 | 0.36 | 0.307 | 0.365 | 0.173 | 0.201 | 1.06 | 1.07 | 0.858 | 0.214 | 0.42 | 0.176 | 0.265 | 0.206 | 0.165 | 0.178 | – |
| EMC-BAC-2 | 0.37 | 0.429 | 0.29 | 0.172 | 0.977 | 0.689 | 0.872 | 0.629 | 0.298 | 0.906 | 0.843 | 0.696 | 0.509 | 0.164 | 0.998 | 0.944 | 0.786 | 0.228 | 0.216 | 0.194 |
| EPLC-272H | – | 0.277 | 0.225 | 0.136 | 0.285 | 0.234 | 0.216 | 0.154 | 0.163 | 1.12 | 1.15 | 0.533 | 0.11 | 0.11 | 0.976 | 0.867 | 0.527 | 0.111 | 0.0981 | 0.163 |
| H3255 | 0.599 | 0.536 | 0.485 | 0.34 | 0.609 | 0.545 | 0.568 | 0.411 | 0.301 | 0.858 | 0.962 | 0.533 | 0.248 | 0.228 | 0.24 | 0.261 | 0.206 | 0.17 | 0.149 | – |
| HARA | 0.445 | 0.504 | 0.244 | 0.0396 | 0.423 | – | 0.609 | 0.149 | 0.0917 | 0.958 | 0.842 | 0.834 | 0.208 | 0.0806 | 0.74 | 0.797 | 0.7 | 0.169 | 0.0753 | 0.0613 |
